This is an account of results in patent US20100311674A1, “PHARMACEUTICAL COMPOSITIONS WITH A MECHANISM OF MULTI-TARGET RECEPTOR RETROACTION FOR TREATING DEPRESSION” (Yu-Fen Chi, priority 2007, published 2010).

Format in all cases: in vivo
For test [1], the system named is ICR mice. Briefly: Mouse tail-hanging test of the debris mixture (Experiment 11). The following applies: 3 mg/kg P.O. 7 days; 1 h after last dose; last 5 of 6 min. From the text:
Nine (9) kg of the remained ginseng debris, 7 kg of the remained liquorice debris and 0.9 kg of the jujuba debris from the Embodiments 1 and 4 extraction procedures are collected, dried, pulverized, and mixed well for obtaining the debris mixture containing the trace amount of ginsenoside Rg1 and Rb1, glycyrrhizic acid and jujuba cAMP. The control experiment of examining the influence of the debris in the mouse tail-hanging test is proceeded. 11.1 Experimental animals: ICR mice, male, 22.0±2 g of body weight, secondary, are provided by the Experimental Animal Science Department of Capital Medical University, Beijing. 11.2 Experiment pharmaceuticals: The debris mixture is provided by Beijing Wonner Biotech. […] High dose of debris mixture (160 mg/kg/d); 2. middle dose of debris mixture (80 mg/kg/d); and 3. low dose of debris mixture (40 mg/kg/d). 11.5.1 Group division and administration of drug: The mice are grouped randomly with 10 mice in each group. 1. […] The time of non-movement of the mouse for the last 5 minutes is recorded. 11.5.3 Statistic calculation: The experimental data are represented as X±SD, and the experimental result is calculated as ANOVA by SPSS 11.5 statistic software.

Test [2] deals with ICR mice. Briefly: Resetpine-induced mouse body temperature decrease experiment (Experiment 2). From the text:
2.1 Experimental animals: ICR mice, male, 22.0±2 g of body weight, secondary, are provided by the Experimental Animal Science Department of Capital Medical University, Beijing.
2.2 Experiment pharmaceuticals: The pharmaceutical of Embodiment 1 is provided by Beijing Wonner Biotech. Ltd. Co., Paroxetine (Paxil) is the product of Thong Mei Tianjin Smith Kline pharmaceuticals Co. Ltd., and Resetpine is the product of Guangdong BangMin Pharmaceutical Co., Ltd.
2.4 Dose designs: 1. High dose of Embodiment 1 (80 mg/kg/d); 2. middle dose of Embodiment 1 (40 mg/kg/d); and 3. low dose of Embodiment 1 (20 mg/kg/d).
2.5.1 Group division and administration of drug: The mice are grouped randomly, and 10 mice are in each group. 1. High dose of Embodiment 1 (80 mg/kg, P.O., administered for 7 days); 2. middle dose of Embodiment 1 (40 mg/kg, P.O., administered for 7 days); 3. low dose of Embodiment 1 (20 mg/kg, P.O., administered for 7 days); 4.
2.5.2 Experimental method: After 1 hour of the last administration of drug on the eighth day, the mouse's anal temperature is determined. […] After 4 hours of injecting Resetpine, the mouse's anal temperature is determined once again. […]
2.5.3 Statistic calculation: The experimental data are represented as X±SD, and the experimental result is calculated as ANOVA by SPSS 11.5 statistic software.

The test system of test [3] is ICR mice. Briefly: Resetpine-induced mouse body temperature decrease experiment (Experiment 6). From the text:
6.1 Experimental animals: ICR mice, male, 22.0±2 g of body weight, secondary, are provided by the Experimental Animal Science Department of Capital Medical University, Beijing.
6.2 Experiment pharmaceuticals: The pharmaceutical of Embodiment 3 is provided by Beijing Wonner Biotech. Ltd. Co., Paroxetine (Paxil) is the product of Zhong Mei Tianjin Smith Kline pharmaceuticals Co. Ltd., and Resetpine is the product of Guangdong BangMin Pharmaceutical Co., Ltd.
6.4 Dose designs: 1. High dose of Embodiment 3 (80 mg/kg/d); 2. middle dose of Embodiment 3 (40 mg/kg/d); and 3. low dose of Embodiment 3 (20 mg/kg/d).
6.5.1 Group division and administration of drug: The mice are grouped randomly, and 10 mice are in each group. 1. High dose of Embodiment 3 (80 mg/kg, P.O., administered for 7 days); 2. middle dose of Embodiment 3 (40 mg/kg, P.O., administered for 7 days); 3. low dose of Embodiment 3 (20 mg/kg, P.O., administered for 7 days); 4.
6.5.2 Experimental method: After 1 hour of the last administration of drug on the eighth day, the mouse's anal temperature is determined. […] After 4 hours of injecting Resetpine, the mouse's anal temperature is determined once again. […]
6.5.3 Statistic calculation: The experimental data are represented as X±SD, and the experimental result is calculated as ANOVA by SPSS 11.5 statistic software.

Where [4] appears, read: 3 mg/kg P.O. 7 days, 4 h after Resetpine 2 mg/kg i.p.

For the compound `Fc1ccc([C@@H]2CCNC[C@H]2COc2ccc3c(c2)OCO3)cc1` [Paroxetine], in the test with ICR mice [1], the Time of non-movement turned out to be 38.37 ± 20.76 s. The Decreased temperature with ICR mice [2] (setting [4]) and with ICR mice [3] (setting [4]) was 2.38 ± 0.69 °C throughout. Besides, the “Effect on reduced body temperature induced by Resetpine (in words)” value in the test on ICR mice [2] (high, middle and low doses of Embodiment 1, Paroxetine) is given as “decrease the reduced body temperature induced by Resetpine”; in the test with ICR mice [3] (high, middle and low doses of Embodiment 3, Paroxetine), “decrease the reduced body temperature induced by Resetpine”.
